# Test results: PubChem BioAssay (NCI)
# Several values for one entry are separate records, joined by “and”; a condition that tells them apart may be missing. Equal values may be shown once.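 How tested: cells in 96-well plates exposed to compound for 48 hours at five concentrations. Abbreviation: GI50, concentration required for 50% inhibition of growth. TGI is the concentration that stops growth completely.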
# Tests used:
# Assay in all cases: NCI tumour cell line growth inhibition, 48 h
# OVCAR-5 ovarian = tested on: OVCAR-5 ovarian
# KM12 colon = tested on: KM12 colon
# SW-620 colon = tested on: SW-620 colon
# COLO 205 colon = tested on: COLO 205 colon
# MALME-3M melanoma = tested on: MALME-3M melanoma
# OVCAR-8 ovarian = tested on: OVCAR-8 ovarian
# HOP-92 NSCLC = tested on: HOP-92 NSCLC
# BT-549 breast = tested on: BT-549 breast
# NCI-H460 lung = tested on: NCI-H460 lung
# ACHN renal = tested on: ACHN renal
Structure (SMILES),GI50 (OVCAR-5 ovarian),TGI (OVCAR-5 ovarian),GI50 (KM12 colon),TGI (KM12 colon),GI50 (SW-620 colon),TGI (SW-620 colon),GI50 (COLO 205 colon),TGI (COLO 205 colon),GI50 (MALME-3M melanoma),TGI (MALME-3M melanoma),GI50 (OVCAR-8 ovarian),TGI (OVCAR-8 ovarian),GI50 (HOP-92 NSCLC) [µM],TGI (HOP-92 NSCLC) [µM],GI50 (BT-549 breast),TGI (BT-549 breast),GI50 (NCI-H460 lung),TGI (NCI-H460 lung),GI50 (ACHN renal),TGI (ACHN renal)
CCOCNc1ccc(N2C(=O)/C(=C/c3ccc(N(CC)CC)cc3)N=C2c2ccccc2)cc1,> 100 µM,> 100 µM,5.44 µM,> 100 µM,41.5 µM,> 100 µM,86.6 µM,> 100 µM,24.8 µM,> 100 µM,10.8 µM,> 100 µM,2.25,12,33.5 µM,> 100 µM,2.86 µM,> 100 µM,17.5 µM,> 100 µM
C=C(CNCCc1ccc(O)cc1)[C@@H]1CC[C@]2(CO)CC[C@]3(C)[C@H](CC[C@@H]4[C@@]5(C)CCC(N)C(C)(C)[C@@H]5CC[C@]43C)[C@@H]12 (stereo partly specified),–,–,1.48 µM,2.96 µM,0.915 µM,2.27 µM,1.64 µM,3.3 µM,1.58 µM,3.09 µM,0.0235 µM,1.39 µM,1.12,2.49,1.7 µM,3.53 µM,1.51 µM,3.07 µM,1.78 µM,3.19 µM
COc1ccc(/C=C(/C(=O)n2cnnn2)c2cc(OC)c(OC)c(OC)c2)cc1,5.78 µM,> 100 µM,1.96 µM,> 100 µM,3.78 µM,> 100 µM,2.92 µM,7.21 µM,7.75 µM,> 100 µM,3.66 µM,> 100 µM,6.71,> 100,2.32 µM,7.57 µM,3.75 µM,> 100 µM,6.87 µM,> 100 µM
Cn1cc(CO)c2ccccc21,> 100 µM,> 100 µM,15.9 µM,88.5 µM,19.1 µM,91.1 µM,30.3 µM,> 100 µM,–,–,> 100 µM,> 100 µM,33.9,> 100,53.7 µM,> 100 µM,30.7 µM,> 100 µM,> 100 µM,> 100 µM
NC(=O)c1cc(I)ccc1NC(=O)COc1ccccc1,2.24 µM,> 100 µM,0.328 µM,> 100 µM,0.432 µM,> 100 µM,0.323 µM,1.97 µM,7.28 µM,> 100 µM,0.876 µM,> 100 µM,2.98,21.4,0.644 µM,31.5 µM,0.433 µM,> 100 µM,1.5 µM,> 100 µM
CN(C)CCCN1c2ccccc2Sc2ccc(Cl)cc21,5.2 µM and 11.8 µM,17.6 µM and 24.8 µM,4.23 µM and 5.55 µM,14.8 µM and 17.6 µM,3.57 µM and 3.69 µM,13.7 µM and 14.6 µM,1.89 µM and 2.85 µM,3.77 µM and 7.68 µM,14.9 µM and 3.04 µM,31.5 µM and 15.8 µM,4.07 µM and 9.24 µM,15.5 µM and 22.8 µM,1.82,8.71,10.9 µM and 11.2 µM,23.5 µM and 24.4 µM,4.72 µM and 10.8 µM,17.1 µM and 23.8 µM,4.06 µM and 5.71 µM,14.8 µM and 18.3 µM
Fc1c[c-]c(-c2ccccn2)c(F)c1.[CH3-].[Pt+2].c1ccc(P(C[PH+](c2ccccc2)c2ccccc2)c2ccccc2)cc1,0.98 µM,2.54 µM,0.421 µM,1.25 µM,0.52 µM,1.49 µM,0.485 µM,2.07 µM,0.342 µM,0.919 µM,0.63 µM,5.76 µM,0.512,1.34,0.492 µM,1.49 µM,0.591 µM,1.54 µM,0.792 µM,1.49 µM
c1ccc(CC(NCCNC(Cc2ccccc2)c2ccccc2)c2ccccc2)cc1 (stereo unspecified),1.24 µM,3.57 µM,0.384 µM,1.52 µM,0.401 µM,1.38 µM,0.191 µM,0.382 µM,0.339 µM,1.44 µM,–,–,0.369,1.48,1.26 µM,3 µM,0.294 µM,0.719 µM,0.585 µM,2.49 µM
O=C(Nc1ccc(Cl)cc1)Nc1ccccc1CNc1nc(Nc2ccc(OCCN3CCCC3)cc2)ncc1Cl,1.1 µM,2.7 µM,1.04 µM,2.2 µM,1.12 µM,2.67 µM,–,–,0.828 µM,1.59 µM,1.25 µM,3.31 µM,0.985,2.77,5.87 µM,12.6 µM,0.936 µM,1.78 µM,0.929 µM,1.78 µM
CC12OC(C(=O)C13CCC3)C1C(=O)c3ccccc3C(=O)C12 (stereo unspecified),> 100 µM,> 100 µM,32.4 µM,> 100 µM,–,–,> 100 µM,> 100 µM,33 µM,> 100 µM,61.8 µM,> 100 µM,> 100,> 100,> 100 µM,> 100 µM,> 100 µM,> 100 µM,> 100 µM,> 100 µM
Cc1ccc(-n2c3c(c4c(CN5CCOCC5)c(O)ccc42)CCc2ccccc2C3=O)cc1,> 100 µM,> 100 µM,> 100 µM,> 100 µM,> 100 µM,> 100 µM,> 100 µM,> 100 µM,–,–,90.7 µM,> 100 µM,68.2,> 100,33.8 µM,> 100 µM,65.8 µM,> 100 µM,> 100 µM,> 100 µM
Cc1n(Cc2ccc3ccccc3c2)c(Cl)c(Cl)[n+]1Cc1ccc2ccccc2c1,1.65 µM,3.89 µM,1.71 µM,3.24 µM,1.48 µM,3.06 µM,1.65 µM,3.8 µM,1.54 µM,3.46 µM,–,–,1.17,2.94,1.65 µM,3.17 µM,1.69 µM,3.2 µM,2.59 µM,8.07 µM
